# Molecular target: T1, full-length human PKCι (Homo sapiens, UniProt P41743)
# T1 construct: Recombinant, full-length human PKCι expressed in Sf21 insect cells is also commercially available; purchased EMD Millipore; host or cells: Sf21 insect cells (baculovirus)
# T1 sequence (P41743 1-596): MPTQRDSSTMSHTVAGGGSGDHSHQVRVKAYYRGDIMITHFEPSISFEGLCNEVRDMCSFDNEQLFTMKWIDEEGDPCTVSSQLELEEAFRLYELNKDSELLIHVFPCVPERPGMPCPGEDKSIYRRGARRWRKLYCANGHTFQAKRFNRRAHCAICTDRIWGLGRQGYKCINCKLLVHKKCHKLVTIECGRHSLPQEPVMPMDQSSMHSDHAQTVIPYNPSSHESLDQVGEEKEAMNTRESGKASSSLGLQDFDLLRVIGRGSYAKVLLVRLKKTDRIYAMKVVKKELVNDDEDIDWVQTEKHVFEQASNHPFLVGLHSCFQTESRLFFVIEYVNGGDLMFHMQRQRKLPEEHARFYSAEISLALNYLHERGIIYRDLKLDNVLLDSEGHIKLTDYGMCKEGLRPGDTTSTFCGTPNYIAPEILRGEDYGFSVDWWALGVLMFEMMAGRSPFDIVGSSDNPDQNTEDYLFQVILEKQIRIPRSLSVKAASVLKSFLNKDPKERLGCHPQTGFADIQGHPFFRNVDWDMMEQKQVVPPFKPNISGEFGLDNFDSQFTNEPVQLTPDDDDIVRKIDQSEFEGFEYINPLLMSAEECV
# Experiment: PKCι IC50 IMAP fluorescence polarisation assay, full-length enzyme, 150 μM ATP
# Type: biochemical
# Details: read-out: IC50 in IMAP assay against full length PKCi at 150 μM ATP
# Outline: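 IMAP fluorescence polarisation kinase assay: 15 pM baculovirus-expressed human PKCiota with 100 nM FAM-pseudosubstrate peptide and 150 μM ATP, 1 h at 25 °C. IMAP detection reagent then 2 h at 25 °C before FP measurement. Inhibition referenced to no-compound and no-enzyme controls for IC50 fitting.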
row,IC50 [nM],SMILES
1,1000 to 10000,"O[C@H]1CCN(c2nc(-c3ccnc4[nH]c5ccccc5c34)nc3cncc(C4CCC4)c23)C1 [Example 253, (S)-1-[5-Cyclobutyl-2-(9H-pyrido[2,3-b]indol-4-yl)-pyrido[3,4-d]pyrimidin-4-yl]-pyrrolidin-3-ol]"
2,1000 to 10000,"CC1(C)CNCC[C@@H]1Nc1nc(-c2ccnc(N[C@H](C(=O)O)c3ccccc3)c2)nc2cncc(C3CC3)c12 [Example 267, (2S)-2-[[4-[5-cyclopropyl-4-[[(4S)-3,3-dimethyl-4-piperidyl]amino]pyrido[3,4-d]pyrimidin-2-yl]-2-pyridyl]amino]-2-phenyl-acetic acid]"
3,< 100,"O[C@@H]1CNCC[C@H]1Nc1nc(-c2ccnc(Nc3ncc(F)cc3F)c2)nc2cncc(C3CC3)c12 (racemic) [Example 309, rac-(3R,4R)-4-{5-Cyclopropyl-2-[2-(3,5-difluoro-pyridin-2-ylamino)-pyridin-4-yl]-pyrido[3,4-d]pyrimidin-4-ylamino}-piperidin-3-ol]"
4,< 100,"CC1(C)CNCC[C@@H]1Nc1nc(-c2ccnc(Nc3ncc(C#N)cc3F)c2)nc2cncc(C3CCC3)c12 [Example 320, 6-{4-[5-Cyclobutyl-4-((S)-3,3-dimethyl-piperidin-4-ylamino)-pyrido[3,4-d]pyrimidin-2-yl]-pyridin-2-ylamino}-5-fluoro-nicotinonitrile]"
5,1000 to 10000,"c1ccc2c(c1)oc1nccc(-c3nc(N4CCNCC4)c4c(C5CC5)cncc4n3)c12 [Example 373, 4-(5-Cyclopropyl-4-piperazin-1-yl-pyrido[3,4-d]pyrimidin-2-yl)-benzofuro[2,3-b]pyridine]"

# Further lines, the compound ahead of its results:
row,SMILES,IC50 [nM]
1,"Fc1ccc(Cl)c(-c2cc3c(-c4nc(N5CCNCC5)c5c(C6CC6)cncc5n4)ccnc3[nH]2)c1 [Example 222, 2-[2-(2-Chloro-5-fluoro-phenyl)-1H-pyrrolo[2,3-b]pyridin-4-yl]-5-cyclopropyl-4-piperazin-1-yl-pyrido[3,4-d]pyrimidine]",< 100
2,"CC1(C)CNCC[C@@H]1Nc1nc(-c2ccnc(Nc3nc(F)ccc3F)c2)nc2cncc(C3CC3)c12 [Example 158, {5-Cyclopropyl-2-[2-(3,6-difluoro-pyridin-2-ylamino)-pyridin-4-yl]-pyrido[3,4-d]pyrimidin-4-yl}-((S)-3,3-dimethyl-piperidin-4-yl)-amine]",< 100
3,"CN(c1nc(-c2ccnc3[nH]c4ccccc4c23)nc2cncc(C3CCC3)c12)C1CC(N)C1 (stereo not shown) [Example 74, N-[5-Cyclobutyl-2-(9H-pyrido[2,3-b]indol-4-yl)-pyrido[3,4-d]pyrimidin-4-yl]-N-methyl-cyclobutane-1,3-diamine]",< 100
4,"CC1(C)CNCC[C@@H]1Nc1nc(-c2ccnc(Nc3ncn(Cc4ccccc4)n3)c2)nc2cncc(C3CC3)c12 [Example 242, {2-[2-(1-Benzyl-1H-1,2,4-triazol-3-ylamino)-pyridin-4-yl]-5-cyclopropyl-pyrido[3,4-d]pyrimidin-4-yl}-((S)-3,3-dimethyl-piperidin-4-yl)-amine]",< 100
5,"Fc1cccc(Nc2cc(-c3nc(N4CCOC5CNCC54)c4c(C5CC5)cncc4n3)ccn2)n1 (stereo not shown) [Example 201, {4-[5-Cyclopropyl-4-(hexahydro-pyrrolo[3,4-b][1,4]oxazin-4-yl)-pyrido[3,4-d]pyrimidin-2-yl]-pyridin-2-yl}-(6-fluoro-pyridin-2-yl)-amine]",< 100
6,"c1ccn2nc(Nc3cc(-c4nc(N5CCC6CNCCC65)c5c(C6CC6)cncc5n4)ccn3)nc2c1 (stereo not shown) [Example 152, {4-[5-Cyclopropyl-4-(octahydro-pyrrolo[3,2-c]pyridin-1-yl)-pyrido [3,4-d]pyrimidin-2-yl]-pyridin-2-yl}-[1,2,4]triazolo[1,5-a] pyridin-2-yl-amine]",1000 to 10000
7,"OC1CNCCC(Nc2nc(-c3ccnc4[nH]c5ccccc5c34)nc3cncc(C4CCC4)c23)C1 (racemic) [Example 231, Trans- or cis-(±)-5-[5-Cyclobutyl-2-(9H-pyrido[2,3-b]indol-4-yl)-pyrido[3,4-d]pyrimidin-4-ylamino]-azepan-3-ol]",< 100
8,"c1cncc(-c2cc3c(-c4nc(N5CCNCC5)c5c(C6CC6)cncc5n4)ccnc3[nH]2)c1 [Example 58, 5-Cyclopropyl-4-piperazin-1-yl-2-(2-pyridin-3-yl-1H-pyrrolo[2,3-b]pyridin-4-yl)-pyrido[3,4-d]pyrimidine]",< 100

# From US10414763B2 (CANCER RESEARCH TECHNOLOGY LIMITED, priority 2014, dated 2019)
